Among the data in PubChem BioAssay AID264 (DTP/NCI, 2004) are T/C values, retold here.

Several values for one entry are separate records, joined by “and”; a condition that tells them apart may be missing. Equal values may be shown once. Records with an inconclusive call do not appear.

The subject of the experiment is nude mice, LX-1 lung xenograft intrarenal, tumor weight T/C. As to the kind of experiment: NCI In Vivo Anticancer Drug Screen. Data for tumor model Human Lung LX-1 Xenograft (intrarenal inoculation) in NU/NU Swiss (nude) mice. To be noted: endpoint: mean tumor weight change, higher = larger tumour. The procedure, abridged: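 Compound-treated mice carrying transplanted tumors were compared with vehicle-treated controls. Tumor size was the measured end point, and the value is the treated-group measurement divided by the control-group measurement (T/C).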

[1] abbreviates: dose: 100.0 mg/kg/injection, schedule: Q04DX003 (sc), vehicle: saline.
Setting [2] is: dose: 200.0 mg/kg/injection, schedule: Q04DX003 (sc), vehicle: saline.
The mark [3] stands for this setting: dose: 400.0 mg/kg/injection, schedule: Q04DX003 (sc), vehicle: saline.
Where [4] appears, read: dose: 800.0 mg/kg/injection, schedule: Q04DX003 (sc), vehicle: saline.
Where [5] appears, read: dose: 150.0 mg/kg/injection, schedule: Q04DX003 (sc), vehicle: Klucel (hydroxypropylcellulose) (HPC).
[6] abbreviates: dose: 300.0 mg/kg/injection, schedule: Q04DX003 (sc), vehicle: Klucel (hydroxypropylcellulose) (HPC).
Where [7] appears, read: dose: 100.0 mg/kg/injection, schedule: Q01DX010 (sc), vehicle: saline with Tween-80.
The mark [8] stands for this setting: dose: 200.0 mg/kg/injection, schedule: Q01DX010 (sc), vehicle: saline with Tween-80.
Setting [9] is: dose: 50.0 mg/kg/injection, schedule: Q01DX010 (sc), vehicle: saline with Tween-80.
The mark [10] stands for this setting: dose: 200.0 mg/kg/injection, schedule: Q04DX003 (sc), vehicle: saline with Tween-80.
Where [11] appears, read: dose: 600.0 mg/kg/injection, schedule: Q04DX003 (sc), vehicle: Klucel (hydroxypropylcellulose) (HPC).

On to `C(COCCOCC1CO1)OCCOCC1CO1` (stereo unspecified), for which the T/C was 108 % of control (dose: 100.0 mg/kg/injection, schedule: Q01DX010 (sc), vehicle: saline); 93 % of control (dose: 200.0 mg/kg/injection, schedule: Q01DX010 (sc), vehicle: saline); 46 % of control (dose: 400.0 mg/kg/injection, schedule: Q01DX010 (sc), vehicle: saline).

With `CC(C)NCC(O)COc1ccc(O)c(O)c1` (stereo unspecified), the T/C under setting [1] was 104 % of control, the T/C under setting [2] is 84 % of control, the T/C under setting [3] is 114 % of control and the T/C under setting [4] is 54 % of control.

On to `O=C(O)CCCc1ccc(N(CCCl)CCCl)cc1`, for which the T/C (dose: 16.0 mg/kg/injection, schedule: Q01DX010 (sc), vehicle: saline with Tween-80) is 30 % of control.

Turning to `CC1(C)CC(=O)C(CSC(=O)c2ccccc2)C(=O)C1`, the T/C reads like this: under setting [5], 102 % of control; under setting [6], 119 % of control.

Take `Cc1cc2nc3c(=O)[nH]c(=O)nc-3n(CC(O)C(O)C(O)C(O)CO)c2cc1C` (stereo unspecified): the T/C was 75 % of control under setting [7]; 92 % of control under setting [8]; 66 % of control (dose: 400.0 mg/kg/injection, schedule: Q01DX010 (sc), vehicle: saline with Tween-80).

Regarding `C1OC1CO[C@@H]1CO[C@H]2[C@@H]1OC[C@H]2OCC1CO1` (stereo partly specified), the T/C reads like this: under setting [9], 95 % of control; under setting [7], 80 % of control; under setting [8], 65 % of control.

With `CC(C)[C@](O)(C(=O)OCC1=CC[N+]2([O-])CC[C@@H](O)[C@@H]12)[C@H](C)O` (stereo partly specified), the T/C (dose: 50.0 mg/kg/injection, schedule: Q01DX010 (sc), vehicle: water) is 59 % of control; the T/C (dose: 100.0 mg/kg/injection, schedule: Q01DX010 (sc), vehicle: water) was 44 % of control; the T/C (dose: 200.0 mg/kg/injection, schedule: Q01DX010 (sc), vehicle: water) is 58 % of control; the T/C (dose: 400.0 mg/kg/injection, schedule: Q01DX010 (sc), vehicle: water) was 36 % of control.

As to `COc1ccc(C[C@H](N)C(=O)NC2C(CO)OC(n3cnc4c(N(C)C)ncnc43)C2O)cc1` (stereo partly specified), the T/C is 109 % of control under setting [1] and 74 % of control under setting [2].

With `COc1ccc(C(=O)c2no[n+]([O-])c2C(=O)c2ccc(OC)cc2)cc1`, the T/C runs as follows: (dose: 100.0 mg/kg/injection, schedule: Q04DX003 (sc), vehicle: saline with Tween-80) 84 % of control; under setting [10], 91 % of control; (dose: 400.0 mg/kg/injection, schedule: Q04DX003 (sc), vehicle: saline with Tween-80) 99 % of control; (dose: 800.0 mg/kg/injection, schedule: Q04DX003 (sc), vehicle: saline with Tween-80) 109 % of control.

For `O=C(Nc1nncs1)c1ccncc1`, the T/C reads like this: under setting [9], 115 % of control; under setting [7], 91 % of control.

On to `O=[N+]([O-])O.[Ga]`, for which the T/C under setting [1] was 92 % of control, the T/C under setting [2] was 86 % of control, the T/C under setting [3] was 86 % of control and the T/C under setting [4] was 83 % of control.

In the case of `COc1cc2cc(c1Cl)N(C)C(=O)CC(OC(=O)CC(C)C)C1(C)OC1C(C)C1CC(O)(NC(=O)O1)C(OC)/C=C/C=C(C)C2` (stereo unspecified), the T/C is 73 % of control (dose: 12.5 micrograms/kg/injection, schedule: Q01DX010 (sc), vehicle: saline + alcohol); 59 % of control (dose: 25.0 micrograms/kg/injection, schedule: Q01DX010 (sc), vehicle: saline + alcohol); 107 % of control (dose: 50.0 micrograms/kg/injection, schedule: Q01DX010 (sc), vehicle: saline + alcohol).

As to `Cc1cn(C2CC(O)C(CO)O2)c(=O)[nH]c1=O` (stereo unspecified), the T/C is 94 % of control under setting [4]; 70 % of control (dose: 1600.0 mg/kg/injection, schedule: Q04DX003 (sc), vehicle: saline); 71 % of control (dose: 3200.0 mg/kg/injection, schedule: Q04DX003 (sc), vehicle: saline); 61 % of control (dose: 6400.0 mg/kg/injection, schedule: Q04DX003 (sc), vehicle: saline).

`COC1CC(C)C(OC)c2cc(O)cc(c2O)NC(=O)/C(C)=C/C=C\C(C)C(OC(N)=O)/C(C)=C\C(C)C1OC` (stereo unspecified): the T/C (dose: 25.0 mg/kg/injection, schedule: Q04DX003 (sc), vehicle: saline + alcohol) was 86 % of control; the T/C (dose: 50.0 mg/kg/injection, schedule: Q04DX003 (sc), vehicle: saline + alcohol) was 93 % of control; the T/C (dose: 100.0 mg/kg/injection, schedule: Q04DX003 (sc), vehicle: saline + alcohol) was 82 % of control.

As for `CCc1ccc(C2=C(O)C(=O)C(c3ccccc3)=C(O)C2=O)cc1`, the T/C was 104 % of control under setting [6]; 49 % of control under setting [11]; 36 % of control (dose: 1200.0 mg/kg/injection, schedule: Q04DX003 (sc), vehicle: Klucel (hydroxypropylcellulose) (HPC)).

As for `C=C(C)C(=NC(C)(C)C)Nc1ccccc1`, the T/C reads like this: (dose: 50.0 mg/kg/injection, schedule: Q04DX003 (sc), vehicle: saline with Tween-80) 62 % of control; under setting [10], 34 % of control.

For the molecule `O=C1SC(c2ccccc2)=S=C1c1ccccc1`, the T/C (dose: 600.0 mg/kg/injection, schedule: Q04DX003 (sc), vehicle: saline with Tween-80) is 224 % of control; the T/C (dose: 1200.0 mg/kg/injection, schedule: Q04DX003 (sc), vehicle: saline with Tween-80) was 78 % of control; the T/C (dose: 2400.0 mg/kg/injection, schedule: Q04DX003 (sc), vehicle: saline with Tween-80) is 88 % of control.

Take `Cc1c2cc[n+](CCN3CCCCC3)cc2c(C)c2c1[nH]c1ccc(O)cc12`: the T/C is 83 % of control (dose: 50.0 mg/kg/injection, schedule: Q04DX003 (sc), vehicle: suspension in saline) and 68 % of control (dose: 100.0 mg/kg/injection, schedule: Q04DX003 (sc), vehicle: suspension in saline).

With `CC(=O)Oc1c(C)[nH]ccc1=O`, the T/C (dose: 300.0 mg/kg/injection, schedule: Q04DX003 (sc), vehicle: suspension in saline) is 73 % of control and the T/C (dose: 600.0 mg/kg/injection, schedule: Q04DX003 (sc), vehicle: suspension in saline) was 65 % of control.

As to `COC1C(CO)OC(n2cnc3c(=S)nc(N)[nH]c32)C1O` (stereo unspecified), the T/C is 118 % of control (dose: 75.0 mg/kg/injection, schedule: Q04DX003 (sc), vehicle: Klucel (hydroxypropylcellulose) (HPC)); 110 % of control under setting [5]; 86 % of control under setting [6]; 66 % of control under setting [11].

Regarding `OCCOCCN1CCN(CCCN2c3ccccc3Sc3ccc(C(F)(F)F)cc32)CC1`, the T/C is, setting by setting: (dose: 3.0 mg/kg/injection, schedule: Q01DX010 (sc), vehicle: saline) 81 % of control; (dose: 12.0 mg/kg/injection, schedule: Q01DX010 (sc), vehicle: saline) 92 % of control and 111 % of control; (dose: 24.0 mg/kg/injection, schedule: Q01DX010 (sc), vehicle: saline) 52 % of control.

Take `C[C@]12CCC(=O)C(O)=C1CC[C@@H]1[C@@H]2CC[C@]2(C)C(=O)CC[C@@H]12`: the T/C is, setting by setting: (dose: 50.0 mg/kg/injection, schedule: Q01DX010 (sc), vehicle: Klucel (hydroxypropylcellulose) (HPC)) 43 % of control; (dose: 100.0 mg/kg/injection, schedule: Q01DX010 (sc), vehicle: Klucel (hydroxypropylcellulose) (HPC)) 30 % of control; (dose: 200.0 mg/kg/injection, schedule: Q01DX010 (sc), vehicle: Klucel (hydroxypropylcellulose) (HPC)) 47 % of control; (dose: 400.0 mg/kg/injection, schedule: Q01DX010 (sc), vehicle: Klucel (hydroxypropylcellulose) (HPC)) 48 % of control.

`CCC1(O)CC2CN(CCc3c([nH]c4ccccc34)C(C(=O)OC)(c3cc4c(cc3OC)N(C)C3C(O)(C(=O)NCCSSCCNC(=O)C5(O)C(O)C6(CC)C=CCN7CCC8(c9cc(C%10(C(=O)OC)CC%11CN(CCc%12c%10[nH]c%10ccccc%12%10)CC(O)(CC)C%11)c(OC)cc9N(C)C58)C76)C(O)C5(CC)C=CCN6CCC43C65)C2)C1` (stereo unspecified): the T/C runs as follows: (dose: 0.75 mg/kg/injection, schedule: Q04DX003 (sc), vehicle: saline) 46 % of control; (dose: 1.5 mg/kg/injection, schedule: Q04DX003 (sc), vehicle: saline) 23 % of control and 46 % of control; (dose: 1.5 mg/kg/injection, schedule: Q04DX003 (sc), vehicle: suspension in saline) 105 % of control; (dose: 6.0 mg/kg/injection, schedule: Q04DX003 (sc), vehicle: suspension in saline) 81 % of control; (dose: 12.0 mg/kg/injection, schedule: Q04DX003 (sc), vehicle: saline) 88 % of control; (dose: 12.0 mg/kg/injection, schedule: Q04DX003 (sc), vehicle: suspension in saline) 65 % of control.
